Source: patent US9499550B2 (BRISTOL-MYERS SQUIBB COMPANY, priority 2012, dated 2016)
Read-outs that look alike come from different tables or passages of the source.

Key:
[1] = tested on: HCV genotype 1a (H77 strain) replicon in HUH-7 cells; experiment: HCV replicon luciferase reporter assay, genotype 1a; format: cell-based; conditions: Hepatitis C virus, Huh-7, 72 h, 3 days incubation
How it was run: (§1)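 Replicon inhibition for both genotypes was measured as Renilla luciferase signal (EnduRen, 7.5 μM final, 2 h) after 3-day, 37° C exposure of replicon-bearing HUH-7 cells in 4% FCS DMEM, 0.5% DMSO. The 1b construct carries S1179I; the 1a H77 construct carries P1496L and S2204I. Twenty-point, 3-fold dilutions were fitted four-parametrically for EC50, and CC50 was taken from multiplexed Cell Titer-Blue.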

[2] = tested on: HCV genotype 1b (Con1) replicon in HUH-7 cells; experiment: HCV replicon luciferase reporter assay, genotype 1b; format: cell-based; conditions: Hepatitis C virus, Huh-7, 72 h, 3 days incubation
How it was run: as §1

[3] = GETYPE1A, HCV genotype 1a replicon luciferase, read-out: LE_1a (EC50, range)
[4] = GETYPE1B, HCV genotype 1b replicon luciferase, read-out: LE_1b (EC50, range)
[5] = HCV genotype 1a replicon luciferase, read-out: LE_1a (EC50, range)
[6] = HCV genotype 1b replicon luciferase, read-out: LE_1b (EC50, range)
[7] = HCV genotype 1a replicon luciferase assay, range class, read-out: LE_1a (EC50, range)
[8] = HCV genotype 1b replicon luciferase assay, range class, read-out: LE_1b (EC50, range)

Work on `COc1cnc(O[C@@H]2C[C@H]3C(=O)N[C@]4(C(=O)NS(=O)(=O)C5(CO)CC5)C[C@H]4/C=C\CC[C@@H](C)C[C@@H](C)[C@H](NC(=O)OC(C)(C)C(F)(F)F)C(=O)N3C2)c2ccccc12` [Compound 4110] yielded an EC50 [1, 3] of 4.82 to 103 nM and an EC50 [2, 4] of 4.82 to 103 nM.

For `[2H]C([2H])([2H])C(OC(=O)N[C@@H]1C(=O)N2C[C@H](Oc3nnc(OCC)c4ccccc34)C[C@H]2C(=O)N[C@]2(C(=O)NS(=O)(=O)C3(C)CC3)C[C@H]2/C=C\CC[C@@H](C)C[C@H]1C)(C([2H])([2H])[2H])C(F)(F)F` [Compound 5033], the EC50 [1, 5] was < 5.46 nM and the EC50 [2, 6] was < 5.46 nM.

`CC[C@@H]1C[C@H](C)CC/C=C\[C@@H]2C[C@@]2(C(=O)NS(=O)(=O)C2CC2)NC(=O)[C@@H]2C[C@@H](Oc3nc(OC)cc4ccccc34)CN2C(=O)[C@H]1NC(=O)OC(C)(C)C` [Compound 6001, tert-butyl ((2R,6S,7R,9R,13aS,14aR,16aS,Z)-14a-((cyclopropylsulfonyl)carbamoyl)-7-ethyl-2-((3-methoxyisoquinolin-1-yl)oxy)-9-methyl-5,16-dioxo-1,2,3,5,6,7,8,9,10,11,13a,14,14a,15,16,16a-hexadecahydrocyclopropa[e]pyrrolo[1,2-a][1,4]diazacyclopentadecin-6-yl)carbamate] was tested, and the EC50 [1, 5] was < 5.46 nM and the EC50 [2, 6] was < 5.46 nM.

With `COc1ccc2nc(C(F)(F)F)c(O[C@@H]3C[C@H]4C(=O)N[C@]5(C(=O)NS(=O)(=O)C6(C)CC6)C[C@H]5/C=C\CC[C@@H](C)C[C@@H](C)[C@H](NC(=O)OC(C)(C)C)C(=O)N4C3)nc2c1` [Compound 4183, tert-butyl (2R,6S,7R,9R,13aS,14aR,16aS,Z)-2-(7-methoxy-3-(trifluoromethyl)quinoxalin-2-yloxy)-7,9-dimethyl-14a-(1-methylcyclopropylsulfonylcarbamoyl)-5,16-dioxo-1,2,3,5,6,7,8,9,10,11,13a,14,14a,15,16,16a-hexadecahydrocyclopropa[e]pyrrolo[1,2-a][1,4]diazacyclopentadecin-6-ylcarbamate] the EC50 [1, 5] was < 5.46 nM and the EC50 [2, 6] was < 5.46 nM.

`CCOc1ccc2nc(Cl)c(O[C@@H]3C[C@H]4C(=O)N[C@]5(C(=O)NS(=O)(=O)C6(CF)CC6)C[C@H]5/C=C\CC[C@@H](C)C[C@@H](C)[C@H](NC(=O)OC(C)(C)C(F)(F)F)C(=O)N4C3)c(Cl)c2c1` [Compound 4292] gave an EC50 [1, 3] of 5.01 to 35 nM and an EC50 [2, 4] of 5.01 to 35 nM.

For `COc1cc2ccnc(O[C@@H]3C[C@H]4C(=O)N[C@]5(C(=O)NS(=O)(=O)C6(F)CC6)C[C@H]5/C=C\CC[C@@H](C)C[C@@H](C)[C@H](NC(=O)OC(C)(C)C)C(=O)N4C3)c2cc1F` [Compound 4049, tert-butyl (2R,6S,7R,9R,13aS,14aR,16aS,Z)-2-(7-fluoro-6-methoxyisoquinolin-1-yloxy)-14a-(1-fluorocyclopropylsulfonylcarbamoyl)-7,9-dimethyl-5,16-dioxo-1,2,3,5,6,7,8,9,10,11,13a,14,14a,15,16,16a-hexadecahydrocyclopropa[e]pyrrolo[1,2-a][1,4]diazacyclopentadecin-6-ylcarbamate], the EC50 [1, 5] was < 5.46 nM and the EC50 [2, 6] was < 5.46 nM.

In the case of `CC[C@@H]1C[C@H](C)CC/C=C\[C@@H]2C[C@@]2(C(=O)NS(=O)(=O)C2CC2)NC(=O)[C@@H]2C[C@@H](Oc3ncc(OC)c4c(Cl)cccc34)CN2C(=O)[C@H]1NC(=O)OC(C)(C)C(F)(F)F` [Compound 4252], the EC50 [1, 3] is reported as 1.01 to 5 nM and the EC50 [2, 4] is reported as 0.51 to 1 nM.

For `COc1cc2c(OC)cnc(O[C@@H]3C[C@H]4C(=O)N[C@]5(C(=O)NS(=O)(=O)C6(CF)CC6)C[C@H]5/C=C\CC[C@@H](C)C[C@@H](C)[C@H](NC(=O)OC(C)(C)C)C(=O)N4C3)c2cc1F` [Compound 4084, tert-butyl (2R,6S,7R,9R,13aS,14aR,16aS,Z)-2-(7-fluoro-4,6-dimethoxyisoquinolin-1-yloxy)-14a-(1-(fluoromethyl)cyclopropylsulfonylcarbamoyl)-7,9-dimethyl-5,16-dioxo-1,2,3,5,6,7,8,9,10,11,13a,14,14a,15,16,16a-hexadecahydrocyclopropa[e]pyrrolo[1,2-a][1,4]diazacyclopentadecin-6-ylcarbamate], the EC50 [1, 5] was < 5.46 nM and the EC50 [2, 6] was < 5.46 nM.

Work on `COc1ccc2c(Cl)ncc(O[C@@H]3C[C@H]4C(=O)N[C@]5(C(=O)NS(=O)(=O)C6(CF)CC6)C[C@H]5/C=C\CC[C@@H](C)C[C@@H](C)[C@H](NC(=O)OC(C)(C)C)C(=O)N4C3)c2c1` [Compound 4380] yielded an EC50 [1, 5] of 1.01 to 5 nM and an EC50 [2, 6] of 1.01 to 5 nM.

For `COc1ccc2c(O[C@@H]3C[C@H]4C(=O)N[C@]5(C(=O)NS(=O)(=O)C6(CF)CC6)C[C@H]5/C=C\CC[C@@H](C)C[C@@H](C)[C@H](NC(=O)OC(C)(C)C(F)(F)F)C(=O)N4C3)cc(-c3ccc(OC(C)C)cc3)nc2c1` [Compound 4148], the EC50 [1, 3] was < 5.46 nM and the EC50 [2, 4] was < 5.46 nM.

`COc1cc2ccnc(O[C@@H]3C[C@H]4C(=O)N[C@]5(C(=O)NS(=O)(=O)C6(C)CC6)C[C@H]5/C=C\CC[C@@H](C)C[C@@H](C)[C@H](NC(=O)OC(C)(C)C)C(=O)N4C3)c2cc1OC` [Compound 5379, tert-butyl ((2R,6S,7R,9R,13aS,14aR,16aS,Z)-2-((6,7-dimethoxyisoquinolin-1-yl)oxy)-7,9-dimethyl-14a-(((1-methylcyclopropyl)sulfonyl)carbamoyl)-5,16-dioxo-1,2,3,5,6,7,8,9,10,11,13a,14,14a,15,16,16a-hexadecahydrocyclopropa[e]pyrrolo[1,2-a][1,4]diazacyclopentadecin-6-yl)carbamate] showed an EC50 [1, 5] of 1.01 to 5 nM and an EC50 [2, 6] of 1.01 to 5 nM.

In the case of `COc1cnc(O[C@@H]2C[C@H]3C(=O)N[C@]4(C(=O)NS(=O)(=O)C5(C)CC5)C[C@H]4/C=C\CC[C@H](C)C[C@@H](C)[C@H](NC(=O)OC(C)(C)C(F)(F)F)C(=O)N3C2)c2ccc(N(C)C)cc12` [Compound 3137, 1,1,1-trifluoro-2-methylpropan-2-yl((2R,6S,7R,9S,13aS,14aR,16aS,Z)-2-((6-(dimethylamino)-4-methoxyisoquinolin-1-yl)oxy)-7,9-dimethyl-14a-(((1-methylcyclopropyl)sulfonyl)carbamoyl)-5,16-dioxo-1,2,3,5,6,7,8,9,10,11,13a,14,14a,15,16,16a-hexadecahydrocyclopropa[e]pyrrolo[1,2-a][1,4]diazacyclopentadecin-6-yl)carbamate], the EC50 [1, 7] is reported as < 5.46 nM and the EC50 [2, 8] is reported as < 5.46 nM.

For `COc1ccc2c(O[C@@H]3C[C@H]4C(=O)N[C@]5(C(=O)NS(=O)(=O)C6(CF)CC6)C[C@H]5/C=C\CC[C@@H](C)C[C@@H](C)[C@H](NC(=O)OC(C)(C)C(C)(F)F)C(=O)N4C3)nc(OC)cc2c1` [Compound 1128], the EC50 ([1]; GETYPE1A, HCV genotype 1a replicon luciferase assay, range class, read-out: LE_1a (EC50, range)) was < 5.46 nM and the EC50 ([2]; GETYPE1B, HCV genotype 1b replicon luciferase assay, range class, read-out: LE_1b (EC50, range)) was < 5.46 nM.

For `CC[C@@H]1C[C@H](C)CC/C=C\[C@@H]2C[C@@]2(C(=O)NS(=O)(=O)C2(C)CC2)NC(=O)[C@@H]2C[C@@H](Oc3cnnc4cc(OC)ccc34)CN2C(=O)[C@H]1NC(=O)OC(C)(C)C` [Compound 4321, tert-butyl ((2R,6S,7R,9R,13aS,14aR,16aS,Z)-7-ethyl-2-((7-methoxycinnolin-4-yl)oxy)-9-methyl-14a-(((1-methylcyclopropyl)sulfonyl)carbamoyl)-5,16-dioxo-1,2,3,5,6,7,8,9,10,11,13a,14,14a,15,16,16a-hexadecahydrocyclopropa[e]pyrrolo[1,2-a][1,4]diazacyclopentadecin-6-yl)carbamate], the EC50 [1, 5] was 5.01 to 35 nM and the EC50 [2, 6] was 5.01 to 35 nM.

For `COc1cc2cc(-c3ccc(OC(C)C)cc3)nc(O[C@@H]3C[C@H]4C(=O)N[C@]5(C(=O)NS(=O)(=O)C6(C)CC6)C[C@H]5/C=C\CC[C@@H](C)C[C@@H](C)[C@H](NC(=O)OC(C)(C)C)C(=O)N4C3)c2cc1F` [Compound 3184, tert-butyl ((2R,6S,7R,9R,13aS,14aR,16aS,Z)-2-((7-fluoro-3-(4-isopropoxyphenyl)-6-methoxyisoquinolin-1-yl)oxy)-7,9-dimethyl-14a-(((1-methylcyclopropyl)sulfonyl)carbamoyl)-5,16-dioxo-1,2,3,5,6,7,8,9,10,11,13a,14,14a,15,16,16a-hexadecahydrocyclopropa[e]pyrrolo[1,2-a][1,4]diazacyclopentadecin-6-yl)carbamate], the EC50 [1, 7] was < 5.46 nM, the EC50 ([1]; HCV genotype 1a replicon luciferase assay, read-out: LE_1a (EC50)) was 2.78 nM and the EC50 [2, 8] was < 5.46 nM. The EC50 ([2]; HCV genotype 1b replicon luciferase assay, read-out: LE_1b (EC50)) was 1.26 nM.

For `COc1ccc2c(O[C@@H]3C[C@H]4C(=O)N[C@]5(C(=O)NS(=O)(=O)C6(CF)CC6)C[C@H]5/C=C\CC[C@@H](C)C[C@@H](C)[C@H](NC(=O)OC5(C(F)(F)F)CCCOC5)C(=O)N4C3)nc(C(F)(F)F)cc2c1` (stereo partly drawn) [Compound 1173, 3-(trifluoromethyl)tetrahydro-2H-pyran-3-yl((2R,6S,7R,9R,13aS,14aR,16aS,Z)-14a-(((1-(fluoromethyl)cyclopropyl)sulfonyl)carbamoyl)-2-((6-methoxy-3-(trifluoromethyl)isoquinolin-1-yl)oxy)-7,9-dimethyl-5,16-dioxo-1,2,3,5,6,7,8,9,10,11,13a,14,14a,15,16,16a-hexadecahydrocyclopropa[e]pyrrolo[1,2-a][1,4]diazacyclopentadecin-6-yl)carbamate], the EC50 [1, 7] was < 5.46 nM and the EC50 [2, 8] was < 5.46 nM.
